# Experimental data taken from US20240016781A1, “TREATMENT OF KRAS MUTANT CANCERS” (MEI Pharma, Inc., priority 2020, published 2024).
# pEC50, pIC50: −log10 of the molar value. Where two headings read alike, the source gives them in different places.
# Assays:
# Assay in all cases: 72-hour CellTiter-Glo 2.0 growth inhibition screen (single agent, 9x9 combination dose matrix)
# Type in all cases: cell-based
# SW48 = settings: for pEC50: SW48, 72 h
# Description: (§1) Growth inhibition was determined using a 72-hour CellTiter-Glo®2.0 proliferation assay. Combination format was a 9×9 dose matrix. Six of the 20 cell lines received the original two combinations whilst the remaining 14 cell lines received two additional combinations resulting in four combinations in total. Results have been supplied as both Chalice Analyzer files (.mcc) and raw luminescence data.
# (§2) Cell lines that have been preserved in liquid nitrogen are thawed and expanded in growth media (see Appendix I). Once cells have reached expected doubling times, screening begins. Cells are seeded in 25 μl of growth media in black 384-well tissue culture treated plates at 500 cells per well (as noted in Analyzer). Cells are equilibrated in assay plates via centrifugation and placed at 37° C. 5% CO2 for twenty-four hours before treatment. […] Compounds are transferred to assay plates using and Echo acoustic liquid handling system. […] of each compound was added at the appropriate concentration for all combination dose points. Therefore, final assay volume would be 25.05 μl. Assay plates are incubated with compound for 3 days and are then analyzed using CellTiter-Glo 2.0. All data points are collected via automated processes and are subject to quality control and analyzed.
# (§3) If T≥V_0:100*(1−(T−V_0)/(V−V_0)) • where T is the signal measure for a test article, V is the untreated/vehicle-treated control measure, and Vo is the untreated/vehicle control measure at time zero (also colloquially referred as TO plates). This formula is derived from the Growth Inhibition calculation used in the National Cancer Institute's NCI-60 high throughput screen. For the purposes of this disclosure, all data analysis was performed in Growth Inhibition (except where noted).
# (§4) Inhibition is also provided as a measure of cell viability. […] Inhibition of 100% represents no doubling of cell numbers during the treatment window. Both cytostatic and cytotoxic treatments can yield an Inhibition percentage of 100%. Inhibition percentage is calculated as the following: […]
# (§5) The fractional inhibition for each component agent and combination point in the matrix is calculated relative to the median of all untreated/vehicle-treated control wells. The Synergy Score equation integrates the experimentally-observed activity volume at each point in the matrix in excess of a model surface numerically derived from the activity of the component agents using the Loewe model for additivity. Additional terms in the Synergy Score equation (above) are used to normalize for various dilution factors used for individual agents and to allow for comparison of synergy scores across an entire experiment. The inclusion of positive inhibition gating or an Idata multiplier removes noise near the zero-effect level, and biases results for synergistic interactions at that occur at high activity levels. Combinations with higher maximum Growth Inhibition (GI) effects or those which are synergistic at low concentrations will have higher Synergy Scores.
# (§6) The CI is a rough estimate of how much drug was needed in combination relative to the single agent doses required to achieve the chosen effect level. CI values in the range of 0.5-0.7 are typical for in vitro measurements of current clinical combinations. The CI error (σCI) is calculated using standard error propagation through the CI calculation based on the isobologram errors. In the Chalice Analyzer, the Best CI is reported from the many CI values calculated for each Icut crossing combination. Among all the measured CI values, the one with the largest single-to-noise level (1−CI)/σCI is reported as the Best CI. Best CI Level is the effect level from which the CI is calculated.
# AsPC-1 = settings: for pEC50: ASPC1, 72 h
# Description: as §1, §2, §3, §4, §5, §6
# HCC1171 = test system: HCC1171
# Description: as §1, §2, §3, §4, §5, §6
# SW48 KRAS (G12D/+) = settings: for pEC50: SW48, 72 h, read-out: EC50
# Description: as §1, §2, §3, §4, §5, §6
# HCC44 = settings: for pEC50: HCC44, 72 h
# Description: as §1, §2, §3, §4, §5, §6
# [1] = Homo sapiens, SW48, Colorectal, Additional Single Agent Responses (inhibition, % I), 72 h
# [2] = Homo sapiens, SW48, Colorectal, growth inhibition (GI) curve, single agent, 72 h
# [3] = SW48 (KRAS WT), enhancer + MEI-522 (Voruciclib), 72 h
# [4] = enhancer combined with MEI-522 (Voruciclib), SW48 (Colorectal), 72 hours, inhibition data
# [5] = AsPC-1 (KRAS G12D), enhancer + MEI-522 (Voruciclib), 72 h
# [6] = enhancer combined with MEI-522 (Voruciclib), AsPC-1 (Pancreas), 72 hours, inhibition data
# [7] = HCC1171 (KRAS G12C), enhancer + MEI-522 (Voruciclib), 72 h
# [8] = HCC1171, Lung, Additional Single Agent Responses (inhibition, % I), 72 h
# [9] = enhancer combined with MEI-522 (Voruciclib), HCC1171 (Lung), 72 hours, inhibition data
# [10] = Homo sapiens, SW48 KRAS (G12D/+), Colorectal, Additional Single Agent Responses (inhibition, % I), 72 h
# [11] = Homo sapiens, SW48 KRAS (G12D/+), Colorectal, growth inhibition (GI) curve, single agent, 72 h
# [12] = SW48 KRAS (G12D/+), enhancer + MEI-522 (Voruciclib), 72 h
# [13] = enhancer combined with MEI-522 (Voruciclib), SW48 KRAS (G12D/+) (Colorectal), 72 hours, inhibition data
# [14] = HCC44 (KRAS G12C), enhancer + MEI-522 (Voruciclib), 72 h
# [15] = Homo sapiens, HCC44, Lung, Additional Single Agent Responses (inhibition, % I), 72 h
# [16] = Homo sapiens, HCC44, Lung, growth inhibition (GI) curve, single agent, 72 h
# [17] = enhancer combined with MEI-522 (Voruciclib), HCC44 (Lung), 72 hours, inhibition data
smiles,measurement,setting,value
CN1CCN(c2ccc(OC(F)(F)F)c(Nc3ncc4c(n3)-c3c(c(C(N)=O)nn3CCO)CC4)c2)CC1 [Onvansertib],pEC50,SW48; [1],7.86
same,pEC50,SW48; [2],7.81
same,pIC50,SW48; [1],7.84
same,Emax,"SW48; Homo sapiens, SW48, Colorectal, Additional Single Agent Responses, 72 h, read-out: Max Response (% I)",95%
same,GI50,SW48; [2],13.4 nM
same,Emax,"SW48; Homo sapiens, SW48, Colorectal, growth inhibition (GI), single agent, 72 h, read-out: Max Response (% GI)",177%
same,Best CI,SW48; [3],0.72
same,Bliss Volume,SW48; [3],6.27
same,HSA volume,SW48; [3],−3.43
same,Loewe Volume,SW48; [3],−1.93
same,Synergy Score,SW48; [3],7.50
same,Response Area,"SW48; SW48, Colorectal, Additional Single Agent Responses (inhibition, % I), 72 h",4.36
same,Response Area,"SW48; SW48, Colorectal, growth inhibition (GI), AUC, single agent, 72 h",7.09
same,Best CI,SW48; [4],0.76
same,Bliss Volume,SW48; [4],−0.78
same,HSA volume,SW48; [4],−0.51
same,Loewe Volume,SW48; [4],−0.74
same,Synergy Score,SW48; [4],1.28
same,Best CI Level,"SW48; enhancer combined with MEI-522 (Voruciclib), SW48 (Colorectal), 72 hours, inhibition data, unit assumed",20%
same,Best CI,AsPC-1; [5],0.84
same,Bliss Volume,AsPC-1; [5],−1.25
same,HSA volume,AsPC-1; [5],−1.39
same,Loewe Volume,AsPC-1; [5],−0.75
same,Synergy Score,AsPC-1; [5],1.41
same,Response Area,"AsPC-1; AsPC-1, Pancreas, Additional Single Agent Responses (inhibition, % I), 72 h",2.50
same,Response Area,"AsPC-1; AsPC-1, Pancreas, growth inhibition (GI), AUC, single agent, 72 h",3.48
same,pEC50,"AsPC-1; Homo sapiens, AsPC-1, Pancreas, Additional Single Agent Responses (inhibition, % I), 72 h",7.02
same,pEC50,"AsPC-1; Homo sapiens, AsPC-1, Pancreas, growth inhibition (GI) curve, single agent, 72 h",7.08
same,pIC50,"AsPC-1; Homo sapiens, ASPC1, AsPC-1, Pancreas, Additional Single Agent Responses (inhibition, % I), 72 h",6.48
same,Emax,"AsPC-1; Homo sapiens, ASPC1, AsPC-1, Pancreas, Additional Single Agent Responses, 72 h, read-out: Max Response (% I)",60%
same,GI50,"AsPC-1; Homo sapiens, ASPC1, AsPC-1, Pancreas, growth inhibition (GI) curve, single agent, 72 h",109 nM
same,Emax,"AsPC-1; Homo sapiens, ASPC1, AsPC-1, Pancreas, growth inhibition (GI), single agent, 72 h, read-out: Max Response (% GI)",84%
same,Best CI,AsPC-1; [6],1.13
same,Best CI Level,AsPC-1; [6],20
same,Bliss Volume,AsPC-1; [6],−1.91
same,HSA volume,AsPC-1; [6],−0.98
same,Loewe Volume,AsPC-1; [6],−0.67
same,Synergy Score,AsPC-1; [6],0.67
same,Best CI,HCC1171; [7],1.01
same,Bliss Volume,HCC1171; [7],−2.83
same,HSA volume,HCC1171; [7],−2.66
same,Loewe Volume,HCC1171; [7],−1.72
same,Synergy Score,HCC1171; [7],1.86
same,pEC50,HCC1171; [8],7.81
same,Response Area,HCC1171; [8],1.75
same,Emax,"HCC1171; HCC1171, Lung, Additional Single Agent Responses, 72 h, read-out: Max Response (% I)",46%
same,GI50,"HCC1171; HCC1171, Lung, growth inhibition (GI) curve, single agent, 72 h",33 nM
same,Response Area,"HCC1171; HCC1171, Lung, growth inhibition (GI), AUC, single agent, 72 h",3.02
same,Emax,"HCC1171; HCC1171, Lung, growth inhibition (GI), single agent, 72 h, read-out: Max Response (% GI)",81%
same,Best CI,HCC1171; [9],0.62
same,Bliss Volume,HCC1171; [9],−3.14
same,HSA volume,HCC1171; [9],−1.61
same,Loewe Volume,HCC1171; [9],−1.03
same,Synergy Score,HCC1171; [9],0.59
same,Best CI Level,"HCC1171; enhancer combined with MEI-522 (Voruciclib), HCC1171 (Lung), 72 hours, inhibition data, unit assumed",50%
same,pEC50,SW48 KRAS (G12D/+); [10],7.85
same,pEC50,SW48 KRAS (G12D/+); [11],7.80
same,pIC50,SW48 KRAS (G12D/+); [10],7.75
same,Emax,"SW48 KRAS (G12D/+); Homo sapiens, SW48 KRAS (G12D/+), Colorectal, Additional Single Agent Responses, 72 h, read-out: Max Response (% I)",92%
same,GI50,SW48 KRAS (G12D/+); [11],13.9 nM
same,Emax,"SW48 KRAS (G12D/+); Homo sapiens, SW48 KRAS (G12D/+), Colorectal, growth inhibition (GI), single agent, 72 h, read-out: Max Response (% GI)",168%
same,Response Area,"SW48 KRAS (G12D/+); SW48 KRAS (G12D/+), Colorectal, Additional Single Agent Responses (inhibition, % I), 72 h",3.73
same,Response Area,"SW48 KRAS (G12D/+); SW48 KRAS (G12D/+), Colorectal, growth inhibition (GI), AUC, single agent, 72 h",5.57
same,Best CI,SW48 KRAS (G12D/+); [12],0.39
same,Bliss Volume,SW48 KRAS (G12D/+); [12],5.34
same,HSA volume,SW48 KRAS (G12D/+); [12],−1.32
same,Loewe Volume,SW48 KRAS (G12D/+); [12],1.06
same,Synergy Score,SW48 KRAS (G12D/+); [12],8.15
same,Best CI,SW48 KRAS (G12D/+); [13],0.51
same,Bliss Volume,SW48 KRAS (G12D/+); [13],−0.39
same,HSA volume,SW48 KRAS (G12D/+); [13],−0.28
same,Loewe Volume,SW48 KRAS (G12D/+); [13],0.65
same,Synergy Score,SW48 KRAS (G12D/+); [13],2.12
same,Best CI Level,"SW48 KRAS (G12D/+); enhancer combined with MEI-522 (Voruciclib), SW48 KRAS (G12D/+) (Colorectal), 72 hours, inhibition data, unit assumed",20%
same,Best CI,HCC44; [14],0.65
same,Bliss Volume,HCC44; [14],4.26
same,HSA volume,HCC44; [14],1.33
same,Loewe Volume,HCC44; [14],0.16
same,Synergy Score,HCC44; [14],3.96
same,Response Area,"HCC44; HCC44, Lung, Additional Single Agent Responses (inhibition, % I), 72 h",3.83
same,Response Area,"HCC44; HCC44, Lung, growth inhibition (GI), AUC, single agent, 72 h",5.16
same,pEC50,HCC44; [15],7.73
same,pEC50,HCC44; [16],7.66
same,pIC50,HCC44; [15],7.60
same,Emax,"HCC44; Homo sapiens, HCC44, Lung, Additional Single Agent Responses, 72 h, read-out: Max Response (% I)",81%
same,GI50,HCC44; [16],18.7 nM
same,Emax,"HCC44; Homo sapiens, HCC44, Lung, growth inhibition (GI), single agent, 72 h, read-out: Max Response (% GI)",112%
same,Best CI,HCC44; [17],0.80
same,Bliss Volume,HCC44; [17],−0.85
same,HSA volume,HCC44; [17],0.68
same,Loewe Volume,HCC44; [17],−0.34
same,Synergy Score,HCC44; [17],0.67
same,Best CI Level,"HCC44; enhancer combined with MEI-522 (Voruciclib), HCC44 (Lung), 72 hours, inhibition data, unit assumed",20%
